In the NIST ThermoML archive (doi:10.1021/je700177n):
± gives the expanded uncertainty stated by the source. Values belong to the molecule of their own block, whether it stands above or below them.

Assays:
[1] = refractive index (Na D-line) (dimensionless); wn = mass fraction of the nth substance listed; settings: 333.15 K, 101 kPa, Liquid
[2] = wn = mass fraction of the nth substance listed; settings: 333.15 K, 101 kPa, Liquid

refractive index ([1]; w2 = 0): 1.326 ± 0.005
Structure (SMILES): O [water] + O=C[C@H](O)[C@@H](O)[C@H](O)[C@H](O)CO

refractive index ([1]; w1 = 0.1): 1.341 ± 0.005 | refractive index ([1]; w1 = 0.2): 1.359 ± 0.005 | refractive index ([1]; w1 = 0.3): 1.375 ± 0.005 | refractive index ([1]; w1 = 0.4): 1.395 ± 0.005 | refractive index ([1]; w1 = 0.5): 1.416 ± 0.005 | refractive index ([1]; w1 = 0.6): 1.432 ± 0.005 | refractive index ([1]; w1 = 0.7): 1.455 ± 0.005 | refractive index ([1]; w1 = 0.8): 1.477 ± 0.005 | refractive index ([1]; w1 = 0.9): 1.506 ± 0.005 | mass density ([2]; w1 = 0.1): 1022 ± 2 kg/m3 | viscosity ([2]; w1 = 0.1): 29.4 mPa·s | mass density ([2]; w1 = 0.2): 1063 ± 3 kg/m3 | viscosity ([2]; w1 = 0.2): 34.8 mPa·s | mass density ([2]; w1 = 0.3): 1109 ± 3 kg/m3 | viscosity ([2]; w1 = 0.3): 43.8 mPa·s | mass density ([2]; w1 = 0.4): 1157 ± 4 kg/m3 | viscosity ([2]; w1 = 0.4): 63 mPa·s | mass density ([2]; w1 = 0.5): 1207 ± 5 kg/m3 | viscosity ([2]; w1 = 0.5): 107.1 mPa·s | mass density ([2]; w1 = 0.6): 1268 ± 6 kg/m3 | viscosity ([2]; w1 = 0.6): 264.6 mPa·s | mass density ([2]; w1 = 0.7): 1334 ± 7 kg/m3 | viscosity ([2]; w1 = 0.7): 409.2 mPa·s | mass density ([2]; w1 = 0.8): 1376 ± 8 kg/m3 | viscosity ([2]; w1 = 0.8): 430.8 mPa·s
Structure (SMILES): O=C[C@H](O)[C@@H](O)[C@H](O)[C@H](O)CO [D-glucose] + O
